Measurements as given in publication PMC9180170, “Amentoflavone Promotes Cellular Uptake and Degradation of Amyloid-Beta in Neuronal Cells” (International Journal of Molecular Sciences, 2022).

Assays:
BV2 microglial cells = test: Aβ uptake assay in BV2 microglia; type: cell-based, mouse; conditions: 200 nM TAMRA-Aβ1-40, 3 h, 37 °C, three independent experiments
Procedure: (§1) Figure 7 Amentoflavone promotes the cellular uptake of Aβ peptide in glial cells. Mouse BV2 microglial cells (A) and immortalized astrocytes (B) were incubated with or without 2 or 10 μM amentoflavone (AMF) plus 200 nM TAMRA Aβ1-40 for three hours at 37 °C. The cells were harvested, and the fluorescent intensity of TAMRA was determined by fluorometry.
(§2) N2a cells were grown in Dulbecco’s Modified Eagle Medium (DMEM) supplemented with 10% fetal bovine serum, 100 U/mL penicillin and 100 µg/mL streptomycin at 37 °C in a humidified CO2 incubator (Thermo Fisher Scientific, Waltham, MA, USA). Cells at less than five passages were used in the experiments. The immortalized BV-2 murine microglial cell line was grown and maintained in DMEM containing antibiotics and 2% fetal bovine serum. The immortalized mouse astrocyte cell line was kindly gifted by David Holtzman at Washington University in St. Louis and maintained in DMEM containing antibiotics and 10% fetal bovine serum.
(§3) The Aβ uptake assay was performed as described, with modifications. […] The fluorescent intensity was measured at λEX = 490 and λEM = 520 for FAM, and λEX = 545 and λEM = 575 for TAMRA using a Biotek Synergy HT plate reader (Winooski, VT). Protein concentrations of the cell lysates were determined using a BCA assay kit (Sigma-Aldrich, St. Louis, MO, USA). […] Cellular uptake of Aβ was expressed as pmole/mg protein.

N2a cells [1] = test: Aβ uptake assay with fluorescently labeled Aβ in N2a cells; type: cell-based, mouse; conditions: 200 nM TAMRA-Aβ1-40, 10 μM AMF, one, three and six hours, TAMRA fluorescence liberated by trypsin digestion
N2a cells [2] = test: Immunoblotting of internalized Aβ1-40 in cell lysates; type: cell-based, mouse; conditions: for effect on intracellular levels of full-length (~4-kDa) monomeric Aβ1-40: N2a cells, unlabeled Aβ1-40, 3 h, 10 μM AMF or leupeptin 100 μg/mL, SDS-PAGE and immunoblotting, normalized to α-tubulin
Procedure: To examine the integrity of Aβ1-40 taken up into neuronal cells, N2a cells were treated with the lysosomal enzyme inhibitor, leupeptin (100 μg/mL), unlabeled Aβ1-40 peptide in the presence or absence of AMF and for 3 h, and cell lysates were subjected to SDS-PAGE followed by immunoblotting with an anti-Aβ1-40 antibody (Figure 4A,B). We observed that the intracellular levels of the full-length (~4-kDa), monomeric Aβ1-40 was increased in the presence of AMF (Figure 4A,B). […] The internalized Aβ1-40 was almost completely degraded within 3 h when N2a cells were incubated with Aβ1-40 for 3 h followed by incubation in the Aβ1-40-free culture medium (washout) for an additional 3 h (Figure 4A,B).
An equal amount of protein samples (5 µg/lane) was separated on a 4–20% gradient tris-tricine gel (Bio-Rad, Hercules, CA, USA) per our published protocol. The gel was transferred to a nitrocellulose membrane (Bio-Rad) at 4 °C for 3 h. Blots were blocked with PBS containing 5% dry milk for 1 h and incubated in PBS solution containing an anti-Aβ antibody HJ2 (1:2000 dilution) or anti-α-tubulin antibody (1:5000 dilution, Sigma-Aldrich). After washing, blots were incubated with goat anti-mouse IgG conjugated with horseradish peroxidase (Bio-Rad, Hercules, CA, USA). The signal was visualized using the HRP chemiluminescent kit (ThermoFisher Scientific, Waltham, MA, USA), and photographic images were taken using a Syngene gel imaging system (Frederick, MD, USA).

immortalized astrocytes = test: Aβ uptake assay in immortalized astrocytes; type: cell-based; conditions: immortalized mouse astrocytes, 2 or 10 μM AMF, 200 nM TAMRA-Aβ1-40, 3 h
Procedure: as §1, §2, §3

N2a cells [3] = test: Aβ uptake assay with fluorescently labeled Aβ in N2a cells; type: cell-based, mouse; conditions: for increase in Aβ1-40 uptake: fluorometry; for effect on cellular uptake of TAMRA-Aβ1-40 (in words): 200 nM TAMRA-Aβ1-40, various concentrations of compound
Procedure: Fluorescent conjugated Aβ peptides were ≥95% in purity as determined by the HPLC method per the vendor (AnaSpec; Fremont, CA, USA). These peptides were dissolved in dimethyl sulfoxide to make 100 μM stock solutions, aliquoted, and stored at −80 °C until use. The fluorescent intensity and protein concentration of each peptide was determined as described below to calculate their specific activities (fluorescent intensity per mg of the conjugated peptide).
(§4) The Aβ uptake assay was performed as described, with modifications. N2a cells were seeded in a 24-well culture plate (2 × 10^5 cells/well) the day prior to the experiments. The next day (cell density at near confluency), cells were rinsed twice with warmed (37 °C) DMEM and incubated in DMEM containing 0.1% bovine serum albumin, 200 nM fluorescently labeled Aβ in the presence or absence of various concentrations of test compounds in a final volume of 200 µL. Cells were then incubated at 37 °C for three hours in the humidified CO2 incubator. The culture plate was placed on ice and the reaction medium was collected in a 1.5-mL microcentrifuge tube. Cells were rinsed twice with phosphate-buffered saline (PBS) containing 137 mM NaCl, 2.7 mM KCl, 10 mM Na2HPO4, and 1.8 mM KH2PO4 (pH: 7.4). To cleave cell surface-bound Aβ and extracellular matrix proteins, cells were treated with 0.05% trypsin in 200 µL PBS at room temperature on an orbital shaker for 5 min. Detached cells were transferred to a microcentrifuge tube and centrifuged at 5000× g for 5 min using a bench-top centrifuge (Thermo Fisher Scientific, Waltham, MA, USA). The supernatant and cell pellet were separated and kept at −80 °C until analysis. Cells were lysed in a buffer containing 20 mM HEPES (pH 7.4), 7.5 mM MgCl2, 1% sodium dodecyl sulfate, 1% Triton X-100, and Complete protease inhibitor cocktail (Sigma-Aldrich, St. Louis, MO, USA). The cell lysate was centrifuged at 10,000× g at 4 °C for 10 min. The fluorescent intensity was measured at λEX = 490 and λEM = 520 for FAM, and λEX = 545 and λEM = 575 for TAMRA using a Biotek Synergy HT plate reader (Winooski, VT). Protein concentrations of the cell lysates were determined using a BCA assay kit (Sigma-Aldrich, St. Louis, MO, USA). The fluorescent intensity of each sample was used to calculate an amount of Aβ in pmole and normalized to protein content. Cellular uptake of Aβ was expressed as pmole/mg protein.

N2a cells [4] = test: Aβ uptake assay with pharmacologic inhibitors of endocytosis; type: cell-based, mouse; conditions: for effect on TAMRA-Aβ1-40 uptake with or without AMF (in words): in the presence or absence of 10 μM AMF, heparin 20 U/mL, cytochalasin D 0.4 or 2 μg/mL
Procedure: as §4
To examine the role of receptor-mediated endocytosis on AMF-induced promotion of Aβ1-40 uptake, we performed the Aβ uptake assay utilizing pharmacologic inhibitors of endocytosis. […] Thirty minutes later, cells were subjected to the Aβ uptake assay with or without 10 μM AMF as described above.

N2a cells [5] = test: Lactate dehydrogenase (LDH) activity assay for cytotoxicity; type: cell-based, mouse; conditions: 24 h
Procedure: The cytotoxicity of Aβ species in N2a cells was assessed using an LDH activity assay kit according to the manufacturer’s protocol (Sigma-Aldrich, St. Louis, MO, USA). Briefly, the Aβ uptake assay was performed as described above using FAM-Aβ1-40 or FAM-Aβ1-42. Twenty-four hours later, the incubation medium was transferred to a microcentrifuge tube and spun at 10,000× g for 5 min to remove cell debris. Triplicate samples of the assay medium were added with an equal volume of LDH master reaction mixture (50 µL/well) to each well of a 96-well plate. The optical density was measured at 37 °C for 30 min at a 5-min interval at a wavelength of 450 nm using a plate reader (Biotek, Winooski, VT, USA).

## O=c1cc(-c2ccc(O)c(-c3c(O)cc(O)c4c(=O)cc(-c5ccc(O)cc5)oc34)c2)oc2cc(O)cc(O)c12 [AMF, amentoflavone]
BV2 microglial cells; 2 μM AMF
  increase in intracellular levels of TAMRA-Aβ1-40: 2.2 fold
BV2 microglial cells; 10 μM AMF
  increase in intracellular levels of TAMRA-Aβ1-40: 3.0 fold
N2a cells [1]
  effect on TAMRA-Aβ1-40 binding to cell membrane: significantly increased
N2a cells [2]
  effect on intracellular levels of full-length (~4-kDa) monomeric Aβ1-40: increased
Immortalized astrocytes
  effect on cellular uptake of TAMRA-Aβ1-40 in astrocytes (in words): significantly increased to a similar extent
N2a cells [3]; 200 nM FAM-Aβ1-40, various concentrations of AMF, 3 h
  effect on intracellular accumulation of FAM-Aβ1-40: increased
N2a cells [3]; 200 nM FAM-Aβ1-42 plus 10 μM AMF, 3 h, mean ± S.E.M. (n = 4)
  cellular uptake of FAM-Aβ1-42 with AMF: 7.52 ± 0.50 pmole/mg protein
N2a cells [3]; 200 nM FAM-Aβ42-1, 10 μM AMF, 3 h
  effect on internalization of the inverted peptide FAM-Aβ42-1: no effect
N2a cells [3]; 200 nM TAMRA-Aβ1-40, 1 μM compound, 3 h, 37 °C, mean ± S.E.M. (n = 4)
  increase in Aβ1-40 uptake: 1.48 ± 0.05 fold
N2a cells [3]; 200 nM TAMRA-Aβ1-40, 3 μM compound, 3 h, 37 °C, mean ± S.E.M. (n = 4)
  increase in Aβ1-40 uptake: 2.48 ± 0.18 fold
N2a cells [3]; 200 nM TAMRA-Aβ1-40, 10 μM compound, 3 h, 37 °C, mean ± S.E.M. (n = 4)
  increase in Aβ1-40 uptake: 3.64 ± 1.12 fold
N2a cells [3]; 3 h
  effect on cellular uptake of TAMRA-Aβ1-40 (in words): most potent activity
N2a cells [3]; 200 nM TAMRA-Aβ1-40 plus 10 μM AMF, after 3 h, mean ± S.E.M. (n = 4)
  concentration of TAMRA-Aβ1-40 in the culture medium with AMF: 170 ± 1.6 nM
N2a cells [4]; 10 μM AMF, 200 nM TAMRA-Aβ1-40, 3 h, mean ± S.E.M., three independent experiments
  TAMRA-Aβ1-40 uptake with AMF, no inhibitor: 3.01 ± 0.22 pmole/mg protein
N2a cells [5]; 200 nM FAM-Aβ1-42, co-treatment with 1, 3 and 10 μM AMF
  effect on FAM-Aβ1-42-induced LDH release: significantly inhibited

## O=C(O[C@@H]1Cc2c(O)cc(O)cc2O[C@@H]1c1cc(O)c(O)c(O)c1)c1cc(O)c(O)c(O)c1 [EGCG, (-)-epigallocatechin gallate, reference compound]
N2a cells [3]; 3 h
  effect on cellular uptake of TAMRA-Aβ1-40 (in words): little to no effect

## O=c1cc(-c2ccc(O)cc2)oc2cc(O)cc(O)c12 [apigenin, reference compound]
N2a cells [3]; 3 h
  effect on cellular uptake of TAMRA-Aβ1-40 (in words): little to no effect

## C=C1[C@@H](C)[C@H]2[C@H](Cc3ccccc3)NC(=O)[C@]23[C@H](OC(C)=O)/C=C/[C@@](C)(O)C(=O)[C@@H](C)C/C=C/[C@H]3[C@@H]1O [cytochalasin D]
N2a cells [4]; 200 nM TAMRA-Aβ1-40, 3 h
  effect on TAMRA-Aβ1-40 uptake with or without AMF (in words): not blocked

## CC(=O)N[C@@H](CC(C)C)C(=O)N[C@@H](CC(C)C)C(=O)N[C@H](C=O)CCCNC(=N)N [leupeptin, reference compound]
N2a cells [2]
  effect on intracellular levels of full-length (~4-kDa) monomeric Aβ1-40: significantly increased
N2a cells [3]; TAMRA-Aβ1-40, leupeptin plus 10 μM AMF, peptide remaining in the culture medium
  effect on AMF-induced promotion of Aβ1-40 uptake: did not influence

## O=c1c(O)c(-c2ccc(O)c(O)c2)oc2cc(O)cc(O)c12 [quercetin, reference compound]
N2a cells [3]; 3 h
  effect on cellular uptake of TAMRA-Aβ1-40 (in words): little to no effect

## ApoE particles: astrocyte-secreted apolipoprotein E particles, inhibitor of LRP-1-mediated endocytosis
N2a cells [4]; 200 nM ApoE particles plus 10 μM AMF, 3 h
  inhibition of AMF-induced TAMRA-Aβ1-40 uptake: ~ 30%
N2a cells [4]; 200 nM ApoE particles, no AMF, 3 h
  decrease of cellular uptake of TAMRA-Aβ1-40: ~ 75%

## Aβ1-40: unlabeled human Aβ1-40 peptide
N2a cells [2]; N2a cells incubated with Aβ1-40 for 3 h, then Aβ1-40-free culture medium (washout), immunoblotting
  time to almost complete degradation of internalized Aβ1-40: ≤ 3 h

## FAM-Aβ1-40: 5-carboxyfluorescein-labeled Aβ1-40 [reference compound]
N2a cells [5]; 200 nM peptide, in the absence or presence of AMF
  cytotoxicity by LDH release (in words): did not cause cell death

## FAM-Aβ1-42: FAM-labeled Aβ1-42 [reference compound]
N2a cells [3]; 200 nM peptide, DMEM with 0.1% BSA, 3 h, 37 °C, fluorometry of cell lysate after trypsin, mean ± S.E.M. (n = 4)
  cellular uptake of labeled peptide without AMF: 3.34 ± 0.84 pmole/mg protein

## TAMRA-Aβ1-40: Aβ1-40 conjugated with a fluorophore 5-carboxytetramethylrhodamine [reference compound]
N2a cells [3]; 200 nM TAMRA-Aβ1-40 alone (vehicle), after 3 h, mean ± S.E.M. (n = 4)
  concentration of TAMRA-Aβ1-40 in the culture medium without AMF: 189 ± 0.6 nM

## fucoidan
N2a cells [4]; 200 nM TAMRA-Aβ1-40, 3 h, no AMF
  effect on TAMRA-Aβ1-40 uptake without AMF (in words): no effect
N2a cells [4]; 100 μM fucoidan (30 min pretreatment) plus 10 μM AMF, 200 nM TAMRA-Aβ1-40, 3 h, mean ± S.E.M., three independent experiments
  TAMRA-Aβ1-40 uptake with inhibitor in the presence of AMF: 1.98 ± 0.17 pmole/mg protein

## heparin
N2a cells [4]; 200 nM TAMRA-Aβ1-40, 3 h
  effect on TAMRA-Aβ1-40 uptake with or without AMF (in words): in part attenuated
